Patent US7612064B2, “Sulfopyrroles” (Takeda Pharmaceutical Company Limited, priority 2003, dated 2009)

Tests used:
[1] = Hoechst 33342 nuclear staining; assay type: cell-based; conditions: for Hoechst 33342 nuclear staining score, HeLa: HeLa cells; for Hoechst 33342 nuclear staining score, Jurkat: Jurkat cells; for Hoechst 33342 nuclear staining score, H460: H460 cells; for Hoechst 33342 nuclear staining score, Jily: Jily cells; for Hoechst 33342 nuclear staining score, MRC5: MRC5 cells;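 on all read-outs here: apoptotic nuclei scored 0 none 1 weak under 50% of cells 2 strong over 50% of cells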
Method: This assay is performed in 96 well tissue culture plates. Appropriate number of cells (adherent cells: 3-5*10^3, suspension cells: 8-10*10^3) are being seeded out in 80 μl complete medium. Adherent cells are incubated for 24 h for proper spreading out before addition of test compounds while suspension cells are immediately treated with test compounds after seeding out. The test compounds are added in 20 μl complete medium containing max 5% DMSO. […] […] The assay plates are then further incubated for 30 min and subsequently analyzed with a standard inverted fluorescence microscope.
The readout allows the determination of the fraction of apoptotic nuclei as well as other morphological criteria specific for apoptosis as a function of the treatment. The following scores are used: 0 relating to no activity, 1 relating to weak activity comprising less than 50% of the cells and score 2 relating to strong activity comprising more than 50% of the cells.

[2] = tested on: HeLa; test: MTS proliferation assay; assay type: cell-based, human; conditions: 72 h
Method: (§1) The assay is performed in 96 well tissue culture plates. […] The test compounds are added in 20 μl complete medium containing max 5% DMSO. The final compound concentrations in the assays are 10 μM, 3 μM, 1 μM and 0.3 μM, respectively. The assay plates are incubated for 72 h at culture conditions. The MTS reagent is prepared according to the manufacturer's protocol (Promega G1111). 20 μl MTS reagent are added to each well, the assay plates are quickly spun and incubated for another 3 h at culture conditions. Subsequently, the plates are shortly shacked and absorption measured with a microplate-reader at 492 nm.

[3] = tested on: MRC5; test: MTS proliferation assay; assay type: cell-based; conditions: MRC5, 72 h
Method: as §1

[4] = conc 0.3 (final concentrations in μM), 24 h or 48 h incubation
[5] = conc 1 (final concentrations in μM), 24 h or 48 h incubation
[6] = conc 3 (final concentrations in μM), 24 h or 48 h incubation
[7] = conc 10 (final concentrations in μM), 24 h or 48 h incubation
[8] = conc 0.1 (final concentrations in μM), 24 h or 48 h incubation

## Cc1ccc(S(=O)(=O)n2cc(CNCCc3ccccc3)cc2-c2ccc3c(c2)OCO3)cc1 [Example 43]
[1]; [4]
  Hoechst 33342 nuclear staining score, HeLa: 0
  Hoechst 33342 nuclear staining score, Jurkat: 0
[1]; [5]
  Hoechst 33342 nuclear staining score, HeLa: 0
  Hoechst 33342 nuclear staining score, Jurkat: 0
[1]; [6]
  Hoechst 33342 nuclear staining score, HeLa: 0
  Hoechst 33342 nuclear staining score, Jurkat: 0
[1]; [7]
  Hoechst 33342 nuclear staining score, HeLa: 0
  Hoechst 33342 nuclear staining score, Jurkat: 0
[2]
  IC50: > 1 µM
[3]
  IC50: > 1 µM

## Cc1ccc(S(=O)(=O)n2cc(CNCCCc3ccccc3)cc2-c2ccc3c(c2)OCO3)cc1 [Example 10]
[1]; [8]
  Hoechst 33342 nuclear staining score, HeLa: 0
  Hoechst 33342 nuclear staining score, Jurkat: 0
[1]; [4]
  Hoechst 33342 nuclear staining score, HeLa: 0
  Hoechst 33342 nuclear staining score, Jurkat: 0
[1]; [5]
  Hoechst 33342 nuclear staining score, HeLa: 0
  Hoechst 33342 nuclear staining score, Jurkat: 0
[1]; [6]
  Hoechst 33342 nuclear staining score, HeLa: 0
  Hoechst 33342 nuclear staining score, Jurkat: 0
[2]
  IC50: > 1 µM
[3]
  IC50: > 1 µM

## Cc1ccc(S(=O)(=O)n2cc(CNCCCN(C)C)cc2-c2ccc3c(c2)OCO3)cc1 [Example 2, 4-(N-[3-Dimethylaminopropyl]-aminomethyl)-2-(3,4-methylenedioxyphenyl)-1-(p-toluenesulfonyl)-pyrrole]
[1]; [8]
  Hoechst 33342 nuclear staining score, HeLa: 0
  Hoechst 33342 nuclear staining score, Jurkat: 0
[1]; [4]
  Hoechst 33342 nuclear staining score, HeLa: 0
  Hoechst 33342 nuclear staining score, Jurkat: 0
[1]; [5]
  Hoechst 33342 nuclear staining score, HeLa: 0
  Hoechst 33342 nuclear staining score, Jurkat: 0
[1]; [6]
  Hoechst 33342 nuclear staining score, HeLa: 0
  Hoechst 33342 nuclear staining score, Jurkat: 0
[2]; Homo sapiens
  IC50: > 1 µM
[3]; Homo sapiens
  IC50: > 1 µM

## COc1cc(-c2cc(-c3cncc(CN(C)C)c3)cn2S(=O)(=O)c2ccc(C)cc2)cc(OC)c1OC [Example 59]
[1]; conc 0.1
  Hoechst 33342 nuclear staining score, H460: 0
  Hoechst 33342 nuclear staining score, HeLa: 0
  Hoechst 33342 nuclear staining score, Jily: 0
  Hoechst 33342 nuclear staining score, Jurkat: 0
  Hoechst 33342 nuclear staining score, MRC5: 0
  Hoechst 33342 nuclear staining score, PBLs: 0
[1]; conc 0.3
  Hoechst 33342 nuclear staining score, H460: 0
  Hoechst 33342 nuclear staining score, HeLa: 0
  Hoechst 33342 nuclear staining score, Jily: 0
  Hoechst 33342 nuclear staining score, Jurkat: 0
  Hoechst 33342 nuclear staining score, MRC5: 0
  Hoechst 33342 nuclear staining score, PBLs: 0
[1]; conc 1
  Hoechst 33342 nuclear staining score, H460: 0
  Hoechst 33342 nuclear staining score, HeLa: 0
  Hoechst 33342 nuclear staining score, Jily: 0
  Hoechst 33342 nuclear staining score, Jurkat: 0
  Hoechst 33342 nuclear staining score, MRC5: 0
  Hoechst 33342 nuclear staining score, PBLs: 0
[1]; conc 3
  Hoechst 33342 nuclear staining score, H460: 2 (strong activity comprising more than 50% of the cells)
  Hoechst 33342 nuclear staining score, HeLa: 0
  Hoechst 33342 nuclear staining score, Jily: 0
  Hoechst 33342 nuclear staining score, Jurkat: 2 (strong activity comprising more than 50% of the cells)
  Hoechst 33342 nuclear staining score, MRC5: 0
  Hoechst 33342 nuclear staining score, PBLs: 0
[2]
  IC50: > 1 µM
[3]
  IC50: > 1 µM

## Cc1ccc(S(=O)(=O)n2cc(CNc3ccc(S(N)(=O)=O)cc3)cc2-c2ccc3c(c2)OCO3)cc1 [Example 45]
[1]; [4]
  Hoechst 33342 nuclear staining score, HeLa: 0
  Hoechst 33342 nuclear staining score, Jurkat: 0
[1]; [5]
  Hoechst 33342 nuclear staining score, HeLa: 0
  Hoechst 33342 nuclear staining score, Jurkat: 0
[1]; [6]
  Hoechst 33342 nuclear staining score, HeLa: 0
  Hoechst 33342 nuclear staining score, Jurkat: 0
[1]; [7]
  Hoechst 33342 nuclear staining score, HeLa: 1 (weak activity comprising less than 50% of the cells)
  Hoechst 33342 nuclear staining score, Jurkat: 2 (strong activity comprising more than 50% of the cells)
[2]
  IC50: > 1 µM
[3]
  IC50: > 1 µM

## CCN(Cc1cc(-c2cccs2)n(S(=O)(=O)c2ccc(C)cc2)c1)c1ccc(OC)cc1OC [Example 1, 4(N-2,4-Dimethoxyphenyl-N-ethylaminomethyl)-2-(2-thienyl)-1-(p-toluene-sulfonyl)-pyrrole]
[2]
  IC50: > 1 µM
[3]
  IC50: > 1 µM

## Cc1ccc(S(=O)(=O)n2cc(CNc3ccccn3)cc2-c2ccc3c(c2)OCO3)cc1 [Example 44]
[1]; [4]
  Hoechst 33342 nuclear staining score, HeLa: 0
  Hoechst 33342 nuclear staining score, Jurkat: 0
[1]; [5]
  Hoechst 33342 nuclear staining score, HeLa: 0
  Hoechst 33342 nuclear staining score, Jurkat: 0
[1]; [6]
  Hoechst 33342 nuclear staining score, HeLa: 0
  Hoechst 33342 nuclear staining score, Jurkat: 0
[1]; [7]
  Hoechst 33342 nuclear staining score, HeLa: 2 (strong activity comprising more than 50% of the cells)
  Hoechst 33342 nuclear staining score, Jurkat: 2 (strong activity comprising more than 50% of the cells)
[2]
  IC50: > 1 µM
[3]
  IC50: > 1 µM

## Cc1ccc(S(=O)(=O)n2cc(CNc3ccc(CN4CCOCC4)cc3)cc2-c2ccc3c(c2)OCO3)cc1 [Example 41]
[1]; [4]
  Hoechst 33342 nuclear staining score, HeLa: 0
  Hoechst 33342 nuclear staining score, Jurkat: 0
[1]; [5]
  Hoechst 33342 nuclear staining score, HeLa: 0
  Hoechst 33342 nuclear staining score, Jurkat: 0
[1]; [6]
  Hoechst 33342 nuclear staining score, HeLa: 0
  Hoechst 33342 nuclear staining score, Jurkat: 0
[1]; [7]
  Hoechst 33342 nuclear staining score, HeLa: 0
  Hoechst 33342 nuclear staining score, Jurkat: 0
[2]
  IC50: > 1 µM
[3]
  IC50: > 1 µM

## COc1ccc(CCNCc2cc(-c3ccc4c(c3)OCO4)n(S(=O)(=O)c3ccc(C)cc3)c2)cc1 [Example 11]
[1]; [8]
  Hoechst 33342 nuclear staining score, HeLa: 0
  Hoechst 33342 nuclear staining score, Jurkat: 0
[1]; [4]
  Hoechst 33342 nuclear staining score, HeLa: 0
  Hoechst 33342 nuclear staining score, Jurkat: 0
[1]; [5]
  Hoechst 33342 nuclear staining score, HeLa: 0
  Hoechst 33342 nuclear staining score, Jurkat: 0
[1]; [6]
  Hoechst 33342 nuclear staining score, HeLa: 0
  Hoechst 33342 nuclear staining score, Jurkat: 0
[2]
  IC50: > 1 µM

## Cc1ccc(S(=O)(=O)n2cc(CNc3ccc(N4CCOCC4)cc3)cc2-c2cccs2)cc1 [Example 9]
[1]; [8]
  Hoechst 33342 nuclear staining score, HeLa: 0
  Hoechst 33342 nuclear staining score, Jurkat: 0
[1]; [4]
  Hoechst 33342 nuclear staining score, HeLa: 0
  Hoechst 33342 nuclear staining score, Jurkat: 0
[1]; [5]
  Hoechst 33342 nuclear staining score, HeLa: 0
  Hoechst 33342 nuclear staining score, Jurkat: 0
[1]; [6]
  Hoechst 33342 nuclear staining score, HeLa: 1 (weak activity comprising less than 50% of the cells)
  Hoechst 33342 nuclear staining score, Jurkat: 2 (strong activity comprising more than 50% of the cells)
[2]
  IC50: > 1 µM

## Cc1ccc(S(=O)(=O)n2cc(CNCCc3ccccc3)cc2-c2cccs2)cc1 [Example 7]
[1]; [8]
  Hoechst 33342 nuclear staining score, HeLa: 0
  Hoechst 33342 nuclear staining score, Jurkat: 0
[1]; [4]
  Hoechst 33342 nuclear staining score, HeLa: 0
  Hoechst 33342 nuclear staining score, Jurkat: 0
[1]; [5]
  Hoechst 33342 nuclear staining score, HeLa: 0
  Hoechst 33342 nuclear staining score, Jurkat: 0
[1]; [6]
  Hoechst 33342 nuclear staining score, HeLa: 0
  Hoechst 33342 nuclear staining score, Jurkat: 0
[2]
  IC50: > 1 µM

## Cc1ccc(S(=O)(=O)n2cc(CNCCCN3CCN(C)CC3)cc2-c2ccc3c(c2)OCO3)cc1.Cl.Cl [Example 13]
[1]; [8]
  Hoechst 33342 nuclear staining score, HeLa: 0
  Hoechst 33342 nuclear staining score, Jurkat: 0
[1]; [4]
  Hoechst 33342 nuclear staining score, HeLa: 0
  Hoechst 33342 nuclear staining score, Jurkat: 0
[1]; [5]
  Hoechst 33342 nuclear staining score, HeLa: 0
  Hoechst 33342 nuclear staining score, Jurkat: 0
[1]; [6]
  Hoechst 33342 nuclear staining score, HeLa: 0
  Hoechst 33342 nuclear staining score, Jurkat: 0

## Cc1ccc(S(=O)(=O)n2cc(CNCCCN(C)C)cc2-c2ccc3c(c2)OCO3)cc1.Cl.Cl [2 × 2HCl]
[1]; [8]
  Hoechst 33342 nuclear staining score, HeLa: 0
  Hoechst 33342 nuclear staining score, Jurkat: 0
[1]; [4]
  Hoechst 33342 nuclear staining score, HeLa: 0
  Hoechst 33342 nuclear staining score, Jurkat: 0
[1]; [5]
  Hoechst 33342 nuclear staining score, HeLa: 0
  Hoechst 33342 nuclear staining score, Jurkat: 0
[1]; [6]
  Hoechst 33342 nuclear staining score, HeLa: 0
  Hoechst 33342 nuclear staining score, Jurkat: 0
